Results on five compounds are retold here after BindingDB's records for doi:10.1124/jpet.103.053975 (National Institute On Drug Abuse, 2003).

The structures appear in SMILES notation. Values joined by “and” are separate entries in the source; they are usually repeats but may differ in a detail not shown here. Equal entries are not always repeated.

Test [1] concerns the target Sodium-dependent noradrenaline transporter (Homo sapiens, UniProt P23975).
In test [2] the target is 5-hydroxytryptamine receptor 7 (Homo sapiens, UniProt P34969).
Test [3] addresses T1, Alpha-2A adrenergic receptor (Homo sapiens, UniProt P08913).
T1 sequence (P08913 whole entry): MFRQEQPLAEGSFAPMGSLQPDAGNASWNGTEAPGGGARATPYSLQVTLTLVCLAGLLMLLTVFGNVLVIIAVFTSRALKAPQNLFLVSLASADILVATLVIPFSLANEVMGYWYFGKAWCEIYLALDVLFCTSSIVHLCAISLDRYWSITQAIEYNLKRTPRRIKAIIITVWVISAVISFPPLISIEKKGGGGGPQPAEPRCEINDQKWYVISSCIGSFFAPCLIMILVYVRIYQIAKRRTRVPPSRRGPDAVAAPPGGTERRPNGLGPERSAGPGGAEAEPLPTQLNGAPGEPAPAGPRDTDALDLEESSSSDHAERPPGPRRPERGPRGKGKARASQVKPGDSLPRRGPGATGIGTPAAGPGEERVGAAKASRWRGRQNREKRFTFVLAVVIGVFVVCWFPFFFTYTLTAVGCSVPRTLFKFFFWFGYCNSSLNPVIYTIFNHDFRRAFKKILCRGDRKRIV

In test [4] the target is T2, Alpha-2C adrenergic receptor (Homo sapiens, UniProt P18825).
T2 sequence (P18825 whole entry): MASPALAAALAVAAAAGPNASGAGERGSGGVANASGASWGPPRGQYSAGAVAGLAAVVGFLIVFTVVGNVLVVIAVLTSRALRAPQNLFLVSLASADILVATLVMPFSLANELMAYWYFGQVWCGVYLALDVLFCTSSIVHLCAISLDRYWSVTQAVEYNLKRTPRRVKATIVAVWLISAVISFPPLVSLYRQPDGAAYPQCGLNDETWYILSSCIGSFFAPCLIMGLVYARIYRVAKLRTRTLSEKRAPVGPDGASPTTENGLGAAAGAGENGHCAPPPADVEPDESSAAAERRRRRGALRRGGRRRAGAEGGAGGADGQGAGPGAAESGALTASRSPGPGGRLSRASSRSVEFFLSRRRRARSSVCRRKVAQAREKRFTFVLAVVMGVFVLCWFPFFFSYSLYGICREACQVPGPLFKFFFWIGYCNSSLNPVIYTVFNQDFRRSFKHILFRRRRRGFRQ

Test [5] concerns the target Sodium-dependent serotonin transporter (Homo sapiens, UniProt P31645).

Chain of Sodium-dependent serotonin transporter (P31645 whole entry): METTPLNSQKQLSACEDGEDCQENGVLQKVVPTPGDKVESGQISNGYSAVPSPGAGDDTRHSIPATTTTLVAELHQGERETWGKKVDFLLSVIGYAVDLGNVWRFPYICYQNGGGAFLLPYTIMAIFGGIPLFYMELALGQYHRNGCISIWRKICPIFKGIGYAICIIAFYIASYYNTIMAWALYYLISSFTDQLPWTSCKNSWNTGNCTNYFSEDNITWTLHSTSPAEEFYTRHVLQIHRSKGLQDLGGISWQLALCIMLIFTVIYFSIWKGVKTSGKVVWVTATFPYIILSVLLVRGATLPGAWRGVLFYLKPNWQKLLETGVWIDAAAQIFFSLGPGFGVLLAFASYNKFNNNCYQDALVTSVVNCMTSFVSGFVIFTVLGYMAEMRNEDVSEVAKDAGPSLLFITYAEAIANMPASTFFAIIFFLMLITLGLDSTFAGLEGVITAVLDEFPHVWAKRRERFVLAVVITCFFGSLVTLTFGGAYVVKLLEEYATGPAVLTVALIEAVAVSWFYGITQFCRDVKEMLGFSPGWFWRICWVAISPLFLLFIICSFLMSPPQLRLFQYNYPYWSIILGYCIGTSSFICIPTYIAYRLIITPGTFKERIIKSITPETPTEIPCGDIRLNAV
Chain of 5-hydroxytryptamine receptor 7 (P34969 whole entry): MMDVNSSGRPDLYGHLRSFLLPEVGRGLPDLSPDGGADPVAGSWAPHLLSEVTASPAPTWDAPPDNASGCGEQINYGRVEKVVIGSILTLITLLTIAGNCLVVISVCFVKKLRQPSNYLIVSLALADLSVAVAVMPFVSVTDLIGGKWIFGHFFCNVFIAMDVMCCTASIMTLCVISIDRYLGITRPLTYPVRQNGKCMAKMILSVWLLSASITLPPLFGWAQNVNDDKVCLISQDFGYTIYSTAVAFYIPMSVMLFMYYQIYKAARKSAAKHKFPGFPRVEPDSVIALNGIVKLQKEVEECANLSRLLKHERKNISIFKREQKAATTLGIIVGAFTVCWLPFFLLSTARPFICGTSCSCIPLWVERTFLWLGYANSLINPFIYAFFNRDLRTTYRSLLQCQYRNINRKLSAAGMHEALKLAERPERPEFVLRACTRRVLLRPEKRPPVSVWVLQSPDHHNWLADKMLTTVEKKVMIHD
Chain of Sodium-dependent noradrenaline transporter (P23975 whole entry): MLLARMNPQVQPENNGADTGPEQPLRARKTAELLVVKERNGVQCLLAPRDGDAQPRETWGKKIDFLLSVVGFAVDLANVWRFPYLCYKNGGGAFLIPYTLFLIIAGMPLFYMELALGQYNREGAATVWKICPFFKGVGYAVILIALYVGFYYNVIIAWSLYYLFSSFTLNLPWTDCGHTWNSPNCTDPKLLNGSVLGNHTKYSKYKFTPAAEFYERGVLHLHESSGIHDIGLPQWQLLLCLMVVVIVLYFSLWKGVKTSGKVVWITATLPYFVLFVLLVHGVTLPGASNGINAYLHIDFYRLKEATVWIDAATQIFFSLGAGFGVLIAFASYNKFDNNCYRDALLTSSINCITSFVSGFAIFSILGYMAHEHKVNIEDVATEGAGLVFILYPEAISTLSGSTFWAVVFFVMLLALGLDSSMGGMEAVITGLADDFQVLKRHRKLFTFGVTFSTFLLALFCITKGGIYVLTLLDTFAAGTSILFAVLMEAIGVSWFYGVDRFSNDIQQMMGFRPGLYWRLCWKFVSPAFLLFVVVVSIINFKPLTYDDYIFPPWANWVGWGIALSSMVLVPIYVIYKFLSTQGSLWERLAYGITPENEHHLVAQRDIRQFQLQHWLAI

One may read the Ki as a dissociation constant, usually derived from enzyme kinetics or from competition with a known ligand. Low readings indicate tighter binding, high ones weaker binding. `CC(N)C(O)c1ccccc1` [(1R, 2S)-2-Amino-1-phenyl-propan-1-ol]: the Ki was 137 nM and 42.1 nM and 15 nM and 30.1 nM in test [1]; 7000 nM in test [2]; 3020 nM and 1330 nM and 2610 nM and 2600 nM in test [3].
With `CNC(C)C(O)c1ccccc1` (configuration not stated) [CAS_24221-86-1], the Ki in test [4] was 708 nM and 1220 nM; in test [3], 2010 nM.
Regarding `CC(N)C(=O)c1ccccc1` (configuration not stated) [CAS_62258], the Ki came to 2370 nM in test [5]; 12.4 nM in test [1]; 2700 nM in test [2]; 765 nM in test [4]; 6810 nM in test [3].
As to `CN[C@@H](C)Cc1ccccc1` [METHAMPHETAMINE (+)], the values for the Ki in test [5] and in test [1] were 736 nM and 12.3 nM, respectively.
Take `CNC(C)C(=O)c1ccccc1` (configuration not stated) [NSC_1576]: the Ki in test [5] is 1770 nM; in test [1], 13.1 nM; in test [2], 1000 nM; in test [4], 605 nM; in test [3], 9020 nM.
